# pIC50: −log10 of the molar value. Calls of active or inactive are those of the source.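 How the source made its calls: active means compounds cutting the HIV-1 infection reporter signal by at least 50%; inactive means the rest.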
# System: MAGI-CCR5 cells, HIV-1 Ba-L, beta-gal luminescence, 48 h
# Test: anti-HIV-1 activity in MAGI-CCR5 cells – cell-based, HIV-1 Ba-L, beta-gal reporter, 5%/10% serum, SAR follow-up (AID 2644)
# Settings: not given
SMILES,pIC50,IC50
O=[N+]([O-])c1cc([N+](=O)[O-])c2oc(-c3ccccc3)c(Br)c2c1O,5.35,–
CCOC(=O)c1sc(N2C(=O)C(O)=C(C(=O)c3ccc(C)o3)C2c2cccc([N+](=O)[O-])c2)nc1C (configuration not stated),4.69,–
CCC(C)(C)C1CCc2c(sc(NC(=O)c3ccccc3C(=O)O)c2C#N)C1 (configuration not stated),–,> 100 µM (inactive)
O=C(O)c1ccccc1N=Nc1c(O)[nH]c2ccc([N+](=O)[O-])cc12,–,> 100 µM (inactive)
Cc1c(Cl)cccc1NS(=O)(=O)c1ccc2c(c1)C1C=CCC1C(c1ccc(C(=O)O)cc1)N2 (configuration not stated),4.78,–
CC(C)(C)c1cc(-c2csc(Nc3ccccc3)[n+]2Cc2ccc(C(=O)O)cc2)cc(C(C)(C)C)c1O,5.14,–
O=C(N/N=C/c1c(O)n(C2CCCCC2)c(=S)[nH]c1=O)c1ccccc1O,4.33,–
N#C/C(=C\c1ccc(O)c([N+](=O)[O-])c1)c1nc2ccccc2s1,5.10,–
CC(C)NC(=O)c1sc(=S)n2c1[nH]c(=O)c1ccc(C(=O)NCCc3ccc(Cl)cc3)cc12,4.45,–
O=C1NC(=S)N(c2ccc(F)cc2)C(=O)/C1=C\c1ccoc1,–,> 100 µM (inactive)
Oc1c(Cl)cc(Cl)c(Cl)c1Cc1c(O)c(Cl)cc(Cl)c1Cl,4.31,–
COc1cc(/C=C2\SC(=O)N(c3ccccc3Cl)C2=O)cc([N+](=O)[O-])c1O,4.86,–
COc1cc(/C=N/NS(=O)(=O)c2ccc3ccccc3c2)ccc1OCc1ccc(C(=O)O)cc1,–,> 100 µM (inactive)
COC(=O)c1sc(-c2ccc(C(C)(C)C)cc2)cc1NC(=O)c1ccccc1C(=O)O,4.30,–
CCOc1cc(/C=C2\SC(=O)N(CC(=O)Nc3ccccc3F)C2=O)cc([N+](=O)[O-])c1O,4.68,–
CSc1nnc(-c2ccccc2N=Cc2c(C)[nH]n(-c3ccc4ccccc4c3)c2=O)c(=O)[nH]1,4.27,–
N#C/C(=C\c1ccc(OCc2ccc(Cl)cc2)cc1)C(=O)Nc1cccc(C(=O)O)c1,–,> 100 µM (inactive)
O=C(O)CCCN1C(=O)/C(=C/c2ccc(-c3nc4ccccc4s3)o2)SC1=S,4.09,–
CCOC(=O)C1=C(C)N=c2sc(=Cc3ccc(OCC(=O)O)cc3)c(=O)n2C1c1ccc(OC(C)C)cc1 (configuration not stated),4.68,–
Cc1c2c(=O)n(-c3nc4ccccc4s3)nc-2cc(O)n1Cc1ccccc1,4.90,–
CCC(Sc1nc2ccsc2c(=O)n1Cc1ccc(C(=O)O)cc1)C(=O)Nc1ccc(C)c(Cl)c1 (configuration not stated),4.84,–

# Same assay, conditions: measured here: antiviral IC50 in 10% serum
row,SMILES,pIC50
1,O=[N+]([O-])c1cc([N+](=O)[O-])c2oc(-c3ccccc3)c(Br)c2c1O,5.03
2,CCOC(=O)c1sc(N2C(=O)C(O)=C(C(=O)c3ccc(C)o3)C2c2cccc([N+](=O)[O-])c2)nc1C (configuration not stated),4.73
3,CCC(C)(C)C1CCc2c(sc(NC(=O)c3ccccc3C(=O)O)c2C#N)C1 (configuration not stated),< 4.00
4,O=C(O)c1ccccc1N=Nc1c(O)[nH]c2ccc([N+](=O)[O-])cc12,< 4.00
5,Cc1c(Cl)cccc1NS(=O)(=O)c1ccc2c(c1)C1C=CCC1C(c1ccc(C(=O)O)cc1)N2 (configuration not stated),4.39
6,CC(C)(C)c1cc(-c2csc(Nc3ccccc3)[n+]2Cc2ccc(C(=O)O)cc2)cc(C(C)(C)C)c1O,4.91
7,O=C(N/N=C/c1c(O)n(C2CCCCC2)c(=S)[nH]c1=O)c1ccccc1O,4.35
8,N#C/C(=C\c1ccc(O)c([N+](=O)[O-])c1)c1nc2ccccc2s1,4.82
9,CC(C)NC(=O)c1sc(=S)n2c1[nH]c(=O)c1ccc(C(=O)NCCc3ccc(Cl)cc3)cc12,4.20
10,O=C1NC(=S)N(c2ccc(F)cc2)C(=O)/C1=C\c1ccoc1,< 4.00
11,Oc1c(Cl)cc(Cl)c(Cl)c1Cc1c(O)c(Cl)cc(Cl)c1Cl,< 4.00
12,COc1cc(/C=C2\SC(=O)N(c3ccccc3Cl)C2=O)cc([N+](=O)[O-])c1O,4.62
13,COc1cc(/C=N/NS(=O)(=O)c2ccc3ccccc3c2)ccc1OCc1ccc(C(=O)O)cc1,< 4.00
14,COC(=O)c1sc(-c2ccc(C(C)(C)C)cc2)cc1NC(=O)c1ccccc1C(=O)O,4.26
15,CCOc1cc(/C=C2\SC(=O)N(CC(=O)Nc3ccccc3F)C2=O)cc([N+](=O)[O-])c1O,4.58
16,CSc1nnc(-c2ccccc2N=Cc2c(C)[nH]n(-c3ccc4ccccc4c3)c2=O)c(=O)[nH]1,< 4.00
17,N#C/C(=C\c1ccc(OCc2ccc(Cl)cc2)cc1)C(=O)Nc1cccc(C(=O)O)c1,< 4.00
18,O=C(O)CCCN1C(=O)/C(=C/c2ccc(-c3nc4ccccc4s3)o2)SC1=S,4.02
19,CCOC(=O)C1=C(C)N=c2sc(=Cc3ccc(OCC(=O)O)cc3)c(=O)n2C1c1ccc(OC(C)C)cc1 (configuration not stated),4.59
20,Cc1c2c(=O)n(-c3nc4ccccc4s3)nc-2cc(O)n1Cc1ccccc1,4.95
21,CCC(Sc1nc2ccsc2c(=O)n1Cc1ccc(C(=O)O)cc1)C(=O)Nc1ccc(C)c(Cl)c1 (configuration not stated),4.42
